Assay results published in patent US20030215462A1, “Use of UGT inhibitors to increase bioavailability” (priority 2001, published 2003).

Legend:
[1] = molecular target: T1, UGT1A10 (Homo sapiens, UniProt Q9HAW8); assay: Inhibition of raloxifene glucuronidation by recombinant UGT1A10 Bacculosomes; details: human, Bacculosomes with recombinant human UGT1A10, pH 7.5, probe raloxifene 50 μM; for activity at 15 min, 25 µM: inhibitor 25 μM; for activity at 15 min, 50 µM: inhibitor 50 μM
T1 sequence (Q9HAW8 26-530): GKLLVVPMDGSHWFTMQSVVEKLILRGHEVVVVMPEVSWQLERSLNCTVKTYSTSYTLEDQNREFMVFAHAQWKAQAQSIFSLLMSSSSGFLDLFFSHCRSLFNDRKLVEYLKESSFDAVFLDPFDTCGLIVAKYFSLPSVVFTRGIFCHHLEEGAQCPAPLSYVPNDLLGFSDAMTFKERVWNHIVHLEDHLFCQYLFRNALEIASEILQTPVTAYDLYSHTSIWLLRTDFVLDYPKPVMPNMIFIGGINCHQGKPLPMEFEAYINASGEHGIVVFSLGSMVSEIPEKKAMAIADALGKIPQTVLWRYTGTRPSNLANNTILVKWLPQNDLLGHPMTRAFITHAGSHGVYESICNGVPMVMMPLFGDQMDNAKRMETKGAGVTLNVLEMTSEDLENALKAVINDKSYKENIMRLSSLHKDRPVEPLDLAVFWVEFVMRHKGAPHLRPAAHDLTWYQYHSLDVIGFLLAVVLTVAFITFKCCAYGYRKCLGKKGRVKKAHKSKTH
Description: (§2) Compounds were eluted using a binary solvent gradient system. Solvent A was water brought to pH 8 with NH4OH. Solvent B was methanol. Solvent flow rate was 1 ml/min and the column temperature was maintained at 50° C. Detection was at 280 nm. […] The system was then returned to the initial conditions and equilibrated for 3 min.

[2] = molecular target: T2, UGT1A1 (Homo sapiens, UniProt P22309); assay: Inhibition of raloxifene glucuronidation by recombinant UGT1A1 Supersomes; details: human; for activity at 15 min, 25 µM: inhibitor 25 μM; for activity at 15 min, 50 µM: inhibitor 50 μM
T2 sequence (P22309 26-533): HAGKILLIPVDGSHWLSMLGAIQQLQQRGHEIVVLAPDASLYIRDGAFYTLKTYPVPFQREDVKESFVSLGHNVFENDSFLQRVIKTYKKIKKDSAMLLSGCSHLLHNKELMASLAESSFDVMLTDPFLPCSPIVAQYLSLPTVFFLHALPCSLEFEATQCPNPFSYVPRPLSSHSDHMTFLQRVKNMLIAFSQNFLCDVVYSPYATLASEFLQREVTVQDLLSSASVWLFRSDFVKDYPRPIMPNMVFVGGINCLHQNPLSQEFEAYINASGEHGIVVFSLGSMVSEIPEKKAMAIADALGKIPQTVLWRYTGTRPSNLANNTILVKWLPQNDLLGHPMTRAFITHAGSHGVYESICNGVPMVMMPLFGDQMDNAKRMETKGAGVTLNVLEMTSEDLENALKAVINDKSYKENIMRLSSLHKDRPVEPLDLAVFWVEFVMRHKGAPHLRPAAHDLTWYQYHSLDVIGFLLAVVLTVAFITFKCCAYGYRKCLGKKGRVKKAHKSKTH
Description: as §2

[3] = system: T3, UGT enzymes of human liver microsomes; assay: Kinetic and Ki studies of inhibitors of 7-HFC glucuronidation in human liver microsomes; type: biochemical; details: 7-HFC 20-500 μM
T3 construct: percentage of control metabolism, 7-HFC glucuronidation; percentage of control metabolism, 7-HFC glucuronidation

[4] = system: T4, UGT enzymes of human liver microsomes; assay: Inhibition of 2ME2 glucuronidation (MG1, MG2) in human liver microsomes; type: biochemical; details: liver 062101, 2ME2 50 μM
T4 construct: other: liver 062101
Excerpt: (§1) Compounds were eluted using a binary solvent gradient system where solvent A was dilute phosphoric acid (pH 3) and solvent B was 80:20 acetonitrile-methanol. […] Detection was at 280 nm.

[5] = system: T5, UGT enzymes of human liver microsomes; assay: Inhibition of labetalol glucuronidation (LG1, LG2) in human liver microsomes; type: biochemical; details: labetalol 50 μM; inhibitor 50 μM
T5 construct: residual metabolism (percentage of control), labetalol LG1; other: labetalol 50 μM; residual metabolism (percentage of control), labetalol LG1; residual metabolism (percentage of control), labetalol LG2; inhi

[6] = system: T6, UGT enzymes of human liver microsomes; assay: Inhibition of estradiol (E2) glucuronidation in human liver microsomes; type: biochemical; details: liver 032101; E2 50 μM; inhibitor 50 μM
T6 construct: residual metabolism (% of control), E2-17-β-D-glucuronide; other: liver 032101; residual metabolism (% of control), E2-17-β-D-glucuronide
Excerpt: as §1

[7] = system: UGT enzymes of human liver microsomes; assay: as above; type: biochemical; details: liver 062101; E2 50 μM; inhibitor 50 μM
Excerpt: as §1

[8] = system: T7, UGT enzymes of human liver microsomes; assay: as above; type: biochemical; details: liver 032101; E2 50 μM; inhibitor 50 μM
T7 construct: residual metabolism (% of control), E2-3-β-D-glucuronide; other: liver 032101; residual metabolism (% of control), E2-3-β-D-glucuronide
Excerpt: as §1

[9] = formation of glucuronide G1, % of control metabolism, raloxifene G1, UGT1A10
[10] = formation of glucuronide G2, % of control metabolism, raloxifene G2, UGT1A10
[11] = Supersomes with recombinant human UGT1A1, pH 7.5, probe raloxifene 50 μM, formation of glucuronide G1, % of control metabolism, raloxifene G1, UGT1A1
[12] = Supersomes with recombinant human UGT1A1, pH 7.5, probe raloxifene 50 μM, formation of glucuronide G1, Inhibition of raloxifene glucuronidation, G1, UGT1A1, G1, raloxifene 50 μM, 250 μg/ml Supersomes, 1 mM UDPGA, 15 min
[13] = Supersomes with recombinant human UGT1A1, pH 7.5, probe raloxifene 50 μM, formation of glucuronide G2, % of control metabolism, raloxifene G2, UGT1A1
[14] = recombinant UGT1A1 Supersomes, pH 7.5, probe raloxifene 50 μM (formation of glucuronide G2), Inhibition of raloxifene glucuronidation, G2, UGT1A1, G2, raloxifene 50 μM, 250 μg/ml Supersomes, 1 mM UDPGA, 15 min

Q: For O=C(O[C@@H]1Cc2c(O)cc(O)cc2O[C@H]1c1cc(O)c(O)c(O)c1)c1cc(O)c(O)c(O)c1 [Gallocatechin gallate], which activity at 15 min, 25 µM [1, 9] is on record?
A: 64%

Q: What about the activity at 15 min, 50 µM [1, 9] of the same compound?
A: 49%

Q: And the activity at 15 min, 25 µM [1, 10]?
A: 68%

Q: And the activity at 15 min, 50 µM [1, 10]?
A: 48%

Q: And the activity at 15 min ([2]; Supersomes with recombinant human UGT1A1, pH 7.5, probe raloxifene 50 μM, formation of glucuronide G1)?
A: 79%

Q: What about the activity at 15 min, 25 µM [2, 11] of the same compound?
A: 52%

Q: What about the activity at 15 min, 50 µM [2, 11] of the same compound?
A: 30%

Q: What about the activity at 15 min, 25 µM [2, 12] of the same compound?
A: 52%

Q: What about the activity at 15 min, 50 µM [2, 12] of the same compound?
A: 30%

Q: And the activity at 15 min, 25 µM [2, 13]?
A: 54%

Q: And the activity at 15 min, 50 µM [2, 13]?
A: 32%

Q: And the activity at 15 min ([2]; recombinant UGT1A1 Supersomes, pH 7.5, probe raloxifene 50 μM (formation of glucuronide G2))?
A: 76%

Q: What about the activity at 15 min, 25 µM [2, 14] of the same compound?
A: 54%

Q: What about the activity at 15 min, 50 µM [2, 14] of the same compound?
A: 32%

Q: And the “Vmax of 7-HFC glucuronidation (fit of the experiment with this inhibitor)” value [3]?
A: 54 ± 3 nmol/min/mg

Q: And the Km ([3]; read-out: Km of 7-HFC glucuronidation (fit of the experiment with this inhibitor))?
A: 75 ± 7 µM

Q: What about the “residual metabolism (% of control), 2ME2 MG1” value ([4]; inhibitor 25 μM) of the same compound?
A: 33 (1) %

Q: And the “residual metabolism (% of control), 2ME2 MG2” value ([4]; inhibitor 25 μM)?
A: 73 (1) %

Q: And the “residual metabolism (% of control), 2ME2 MG1” value ([4]; inhibitor 50 μM)?
A: 21 (2) %

Q: What about the “residual metabolism (% of control), 2ME2 MG2” value ([4]; inhibitor 50 μM) of the same compound?
A: 61 (1) %

Q: And the “residual metabolism (% of control), 2ME2 MG1” value ([4]; inhibitor 100 μM)?
A: 9 (1) %

Q: And the “residual metabolism (% of control), 2ME2 MG2” value ([4]; inhibitor 100 μM)?
A: 36 (1) %

Q: What about the “residual metabolism (percentage of control), labetalol LG1” value [5] of the same compound?
A: 60 (5) %

Q: What about the “residual metabolism (percentage of control), labetalol LG2” value [5] of the same compound?
A: 55 (8) %

Q: What about the “residual metabolism (% of control), E2-17-β-D-glucuronide” value [6] of the same compound?
A: 69 (4) %

Q: And the “residual metabolism (% of control), E2-3-β-D-glucuronide” value [7]?
A: 33 (2) %

Q: And the “residual metabolism (% of control), E2-17-β-D-glucuronide” value [7]?
A: 55 (2) %

Q: And the “residual metabolism (% of control), E2-3-β-D-glucuronide” value [8]?
A: 24 (1) %
